Assays:
[1] = Mixed nanomicellar size and polydispersity index (Zetasizer); assay type: physicochemical; conditions: solvent evaporation; HCO-60 4 wt %, Octoxynol-40 0.01 wt %, 1001 initially added 0.120 wt %
Experimental: The formulation size and polydispersity index were determined with Zetasizer, Malvern Instruments, NJ. In brief, approximately 1 ml of each formulation was transferred to a cuvette and placed in the instrument. A laser beam of light was used to determine the mixed nanomicellar size.
Weight percent of drug loaded into MNF was determined following the method for entrapment efficiency. Size and polydispersity index of the formulations was determined with Malvern zetasizer as described above. The formulations appear clear and have small size and narrow size distribution.

[2] = Visual appearance of mixed nanomicellar formulation; assay type: physicochemical; conditions: for Final formulation / Resuspend in water / Final formulation (make up with 2X buffer containing 0.01% Oc-40): 1001 4 wt %; for Result: solvent evaporation, HCO-60 4 wt %, Octoxynol-40 0.01 wt %
Experimental: Mixed nanomicellar formulation encapsulating compound 1001 was prepared by solvent evaporation method in two steps: 1) Preparation of basic formulation and 2) rehydration. In step one, compound 1001, HCO-60 and octoxynol-40 were dissolved separately in 0.3 mL of ethyl acetate. These three solutions were mixed together in 15-mL centrifuge tube. The resultant mixture was vortexed to obtain a homogenous solution. Ethyl acetate solvent was removed with speed vacuum to obtain a solid thin film. The residue was kept overnight under high vacuum at room temperature to remove residual organic solvent. In step two, the resultant thin film was hydrated with 1 mL of double distilled deionized water by vortexing the solution. The rehydrated formulation was suspended in 2× phosphate buffer solution, (pH 6.5). It was filtered through 0.2 μm nylon filter membrane to remove the unentrapped drug aggregates and other foreign particulates. […]
The preparation of MNF encapsulating compound 1001 (neat oil) can be divided into two steps. As an example for the development of 3.0 wt % HCO-40 or HCO-60 MNF encapsulating 0.4% compound 1001 is described below. […] To this melt polymer compound 1001 (˜20 mg), thermostated at 40° C., was added and mixed for homogenous distribution. […] (in refrigerator).
This aqueous solution was allowed to reach room temperature, under natural conditions. The pH of the solution was adjusted to 5.5 and the volume was made up with 2× phosphate buffer saline (pH 5.5) containing octoxynol-40 (0.01 wt %) and PVP-K-90 (1.2 wt %). The formulation was filtered through 0.2 μm nylon filter to remove any foreign material and obtain a clear homogenous aqueous RX-1001 formulation.
The results obtained for physical appearance of the mixture, different phases, at different temperatures and appearance of final formulation are summarized in Tables 2a-2c. […]

[3] = melt at 40° C., cooled to room temperature, HCO-40 0.5 wt %
[4] = melt at 40° C., cooled to room temperature, HCO-40 0.75 wt %
[5] = melt at 40° C., cooled to room temperature, HCO-40 1.0 wt %
[6] = melt at 40° C., cooled to room temperature, HCO-40 1.25 wt %
[7] = melt at 40° C., cooled to room temperature, HCO-40 1.5 wt %
[8] = melt at 40° C., cooled to room temperature, HCO-40 1.75 wt %
[9] = melt at 40° C., cooled to room temperature, HCO-40 2.0 wt %
[10] = melt at 40° C., cooled to room temperature, HCO-40 2.25 wt %
[11] = melt at 40° C., cooled to room temperature, HCO-40 2.5 wt %
[12] = melt at 40° C., cooled to room temperature, HCO-40 2.75 wt %
[13] = melt at 40° C., cooled to room temperature, HCO-40 3.0 wt %
[14] = melt at 40° C., cooled to room temperature, HCO-40 4.0 wt %

- Final formulation [2, 3]: Emulsion
- Resuspend in water [2, 3]: Emulsion
- Final formulation [2, 4]: Emulsion
- Resuspend in water [2, 4]: Emulsion
- Final formulation [2, 5]: Emulsion
- Resuspend in water [2, 5]: Emulsion
- Final formulation [2, 6]: Emulsion
- Resuspend in water [2, 6]: Emulsion
- Final formulation [2, 7]: Emulsion
- Resuspend in water [2, 7]: Emulsion
- Final formulation [2, 8]: Emulsion
- Resuspend in water [2, 8]: Emulsion
- Final formulation [2, 9]: Emulsion
- Resuspend in water [2, 9]: Emulsion
- Final formulation [2, 10]: Emulsion
- Resuspend in water [2, 10]: Emulsion
- Final formulation [2, 11]: Yellow color
- Resuspend in water [2, 11]: Yellow
- Final formulation [2, 12]: Pale yellow
- Resuspend in water [2, 12]: Pale yellow
- Final formulation [2, 13]: Clear
- Resuspend in water [2, 13]: Clear
- Final formulation [2, 14]: Clear
- Resuspend in water [2, 14]: Clear
- Resuspend in water ([2]; melt cooled to 25° C., placed at 4° C., back to room temperature, water at 40° C., HCO-40 0.5 wt %): Emulsion
- Resuspend in water ([2]; melt cooled to 25° C., placed at 4° C., back to room temperature, water at 40° C., HCO-40 0.75 wt %): Emulsion
- Resuspend in water ([2]; melt cooled to 25° C., placed at 4° C., back to room temperature, water at 40° C., HCO-40 1.0 wt %): Emulsion
- Resuspend in water ([2]; melt cooled to 25° C., placed at 4° C., back to room temperature, water at 40° C., HCO-40 1.25 wt %): Emulsion
- Resuspend in water ([2]; melt cooled to 25° C., placed at 4° C., back to room temperature, water at 40° C., HCO-40 1.5 wt %): Emulsion
- Resuspend in water ([2]; melt cooled to 25° C., placed at 4° C., back to room temperature, water at 40° C., HCO-40 1.75 wt %): Emulsion
- Resuspend in water ([2]; melt cooled to 25° C., placed at 4° C., back to room temperature, water at 40° C., HCO-40 2.0 wt %): Emulsion
- Resuspend in water ([2]; melt cooled to 25° C., placed at 4° C., back to room temperature, water at 40° C., HCO-40 2.25 wt %): Emulsion
- Resuspend in water ([2]; melt cooled to 25° C., placed at 4° C., back to room temperature, water at 40° C., HCO-40 2.5 wt %): Yellow
- Resuspend in water ([2]; melt cooled to 25° C., placed at 4° C., back to room temperature, water at 40° C., HCO-40 2.75 wt %): Pale yellow
- Resuspend in water ([2]; melt cooled to 25° C., placed at 4° C., back to room temperature, water at 40° C., HCO-40 3.0 wt %): Clear
- Resuspend in water ([2]; melt cooled to 25° C., placed at 4° C., back to room temperature, water at 40° C., HCO-40 4.0 wt %): Clear
- Final formulation ([2]; melt cooled to 25° C., placed at 4° C., back to room temperature, HCO-40 0.5 wt %): Emulsion
- Final formulation ([2]; melt cooled to 25° C., placed at 4° C., back to room temperature, HCO-40 0.75 wt %): Emulsion
- Final formulation ([2]; melt cooled to 25° C., placed at 4° C., back to room temperature, HCO-40 1.0 wt %): Emulsion
- Final formulation ([2]; melt cooled to 25° C., placed at 4° C., back to room temperature, HCO-40 1.25 wt %): Emulsion
- Final formulation ([2]; melt cooled to 25° C., placed at 4° C., back to room temperature, HCO-40 1.5 wt %): Emulsion
- Final formulation ([2]; melt cooled to 25° C., placed at 4° C., back to room temperature, HCO-40 1.75 wt %): Emulsion
- Final formulation ([2]; melt cooled to 25° C., placed at 4° C., back to room temperature, HCO-40 2.0 wt %): Emulsion
- Final formulation ([2]; melt cooled to 25° C., placed at 4° C., back to room temperature, HCO-40 2.25 wt %): Emulsion
- Final formulation ([2]; melt cooled to 25° C., placed at 4° C., back to room temperature, HCO-40 2.5 wt %): Yellow color
- Final formulation ([2]; melt cooled to 25° C., placed at 4° C., back to room temperature, HCO-40 2.75 wt %): Very pale yellow
- Final formulation ([2]; melt cooled to 25° C., placed at 4° C., back to room temperature, HCO-40 3.0 wt %): Clear
- Final formulation ([2]; melt cooled to 25° C., placed at 4° C., back to room temperature, HCO-40 4.0 wt %): Clear
- Final formulation (make up with 2X buffer containing 0.01% Oc-40) ([2]; melt method, HCO-60 1.0 wt %): Emulsion
- Resuspend in water ([2]; melt method, HCO-60 1.0 wt %, water at 40°): Emulsion
- Final formulation (make up with 2X buffer containing 0.01% Oc-40) ([2]; melt method, HCO-60 2.0 wt %): Pale yellow
- Resuspend in water ([2]; melt method, HCO-60 2.0 wt %, water at 40°): Forms pale
- Final formulation (make up with 2X buffer containing 0.01% Oc-40) ([2]; melt method, HCO-60 2.25 wt %): Pale yellow
- Resuspend in water ([2]; melt method, HCO-60 2.25 wt %, water at 40°): Forms pale
- Final formulation (make up with 2X buffer containing 0.01% Oc-40) ([2]; melt method, HCO-60 2.5 wt %): Pale yellow
- Resuspend in water ([2]; melt method, HCO-60 2.5 wt %, water at 40°): Forms very
- Final formulation (make up with 2X buffer containing 0.01% Oc-40) ([2]; melt method, HCO-60 2.75 wt %): Clear solution
- Resuspend in water ([2]; melt method, HCO-60 2.75 wt %, water at 40°): Forms very
- Final formulation (make up with 2X buffer containing 0.01% Oc-40) ([2]; melt method, HCO-60 3.0 wt %): Clear solution
- Resuspend in water ([2]; melt method, HCO-60 3.0 wt %, water at 40°): Clear solution
- Final formulation (make up with 2X buffer containing 0.01% Oc-40) ([2]; melt method, HCO-60 3.5 wt %): Clear solution
- Resuspend in water ([2]; melt method, HCO-60 3.5 wt %, water at 40°): Clear solution
- Final formulation (make up with 2X buffer containing 0.01% Oc-40) ([2]; melt method, HCO-60 4.0 wt %): Clear solution
- Resuspend in water ([2]; melt method, HCO-60 4.0 wt %, water at 40°): Clear solution
SMILES: C#CC[C@@H](O)/C=C/C=C/C#C[C@@H](O)CCCC(=O)OC(C)C [compound 1001]
- Polydispersity Index [1]: 0.320
- Result ([2]; 1001 initially added 0.035 wt %): Clear/transparent
- Result ([2]; 1001 initially added 0.070 wt %): Clear/transparent
- Result ([2]; 1001 initially added 0.095 wt %): Clear/transparent
- Result ([2]; 1001 initially added 0.120 wt %): Pale yellow color
- Result ([2]; 1001 initially added 0.250 wt %): Yellow color
- Result ([2]; 1001 initially added 0.300 wt %): Yellow color
- Result ([2]; 1001 initially added 0.400 wt %): Yellow color
